Where two headings read alike, the source gives them in different places.
Legend:
Format in all cases: cell-based
[1] = tested on: EGFR Del19/T790M/C797S (BaF3-DTC cells); experiment: EGFR degradation HTRF assay, BaF3-DTC cells; conditions: 16h treatment; for DTC Dmax (%): maximum percentage of degradation; for DC50: read-out: DTC DC50
Procedure: BaF3 WT(wild type), BaF3-LTC(L858R/T790M/C797S) and BaF3-DTC(Del19/T790M/C797S) cells are treated with compounds diluted in 0.2% DMSO cell culture medium and incubate for 16h, 37° C., 5% CO2, H1975-#36, H1975-#28, H1975-#23 and HCC827 cells are treated with compounds diluted in 0.2% DMSO cell culture medium on day 2, incubate for 16h, 37° C., 5% CO2.the final concentriation of compounds in all assay is start with 10 uM, 5-fold dilution, total 8 doses were included.
After 16h treatment, add HTRF lysis buffer to each well; seal the plate and incubate 1 hour at room temperature on a plate shaker; Once the cells are lysed, 16 μL of cell lysate are transferred to a PE 384-well HTRF detection plate; 4 μL of pre-mixed HTRF antibodies are added to each well; Cover the plate with a plate sealer, spin 1000 rpm for 1 min, Incubate overnight at room temperature; Read on BMG PheraStar with HTRF protocol (337 nm-665 nm-620 nm).
The inhibition (degradation) percentage of the compound was calculated by the following equation: Inhibition percentage of Compound=100-100×(Signal-low control)/(High control-low control), wherein signal=each test compound group
High control=Cell group with added DMSO and without compound, indicating microplate readings without EGFR degradation;
Dmax is the maximum percentage of inhibition (degradation).
The IC50 (DC50) value of a compound can be obtained by fitting the following equation
Y=Bottom+(TOP−Bottom)/(1+((IC50/X)^hillslope))
Wherein, X and Y are known values, and IC50, Hillslope, Top and Bottom are the parameters obtained by fitting with software. Y is the inhibition percentage (calculated from the equation), X is the concentration of the compound; IC50 is the concentration of the compound when the 50% inhibition is reached. The smaller the IC50 value is, the stronger the inhibitory ability of the compound is. Vice versa, the higher the IC50 value is, the weaker the inhibitory ability of the compound is; Hillslope represents the slope of the fitted curve, generally around 1*; Bottom represents the minimum value of the curve obtained by data fitting, which is generally 0%±20%; Top represents the maximum value of the curve obtained by data fitting, which is generally 100%±20%. The experimental data were fitted by calculating and analyzing with Dotmatics data analysis software.

[2] = target: T1, EGFR L858R/T790M/C797S (BaF3-LTC cells) (Homo sapiens, UniProt P00533, C797S/L858R/T790M); experiment: EGFR degradation HTRF assay, BaF3-LTC cells
T1 construct: expressed in transfected cells; host or cells: BaF3
T1 sequence (P00533 25-1210 T790M/C797S/L858R): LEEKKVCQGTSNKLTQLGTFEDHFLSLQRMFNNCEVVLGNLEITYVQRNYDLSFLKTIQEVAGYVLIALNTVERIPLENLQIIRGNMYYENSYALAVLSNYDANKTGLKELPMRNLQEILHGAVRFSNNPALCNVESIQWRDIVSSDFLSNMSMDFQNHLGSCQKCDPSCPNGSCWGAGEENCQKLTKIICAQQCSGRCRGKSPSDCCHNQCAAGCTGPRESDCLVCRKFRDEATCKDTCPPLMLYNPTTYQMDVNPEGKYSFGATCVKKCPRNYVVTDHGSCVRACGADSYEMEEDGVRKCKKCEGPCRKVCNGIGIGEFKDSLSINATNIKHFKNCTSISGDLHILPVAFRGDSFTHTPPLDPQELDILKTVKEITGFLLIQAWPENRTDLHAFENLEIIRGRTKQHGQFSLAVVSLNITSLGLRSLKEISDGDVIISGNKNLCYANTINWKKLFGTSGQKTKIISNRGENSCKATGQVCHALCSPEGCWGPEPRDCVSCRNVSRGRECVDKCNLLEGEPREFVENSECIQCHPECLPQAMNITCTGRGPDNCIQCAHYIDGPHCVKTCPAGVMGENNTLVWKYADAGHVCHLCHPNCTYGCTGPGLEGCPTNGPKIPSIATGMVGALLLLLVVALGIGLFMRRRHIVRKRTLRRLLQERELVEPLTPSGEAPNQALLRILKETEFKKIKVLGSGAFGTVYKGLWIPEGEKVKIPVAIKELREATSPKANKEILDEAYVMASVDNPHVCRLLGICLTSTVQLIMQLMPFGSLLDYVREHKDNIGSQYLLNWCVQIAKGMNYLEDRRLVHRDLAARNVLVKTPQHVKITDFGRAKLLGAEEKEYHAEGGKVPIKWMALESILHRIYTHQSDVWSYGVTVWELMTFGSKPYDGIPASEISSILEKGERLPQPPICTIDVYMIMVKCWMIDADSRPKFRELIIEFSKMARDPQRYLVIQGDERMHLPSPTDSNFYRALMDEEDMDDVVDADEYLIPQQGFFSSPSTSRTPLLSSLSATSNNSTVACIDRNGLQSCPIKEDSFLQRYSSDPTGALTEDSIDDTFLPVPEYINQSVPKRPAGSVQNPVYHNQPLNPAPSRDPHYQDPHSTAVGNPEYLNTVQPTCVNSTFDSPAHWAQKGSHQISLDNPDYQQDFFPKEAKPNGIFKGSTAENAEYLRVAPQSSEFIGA
In short: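 EGFR remaining after a 16 h, 37 °C exposure (8 doses, 5-fold steps from 10 uM final, 0.2% DMSO) was quantified by HTRF antibodies in cell lysate. Percent inhibition relative to DMSO control was fitted by four-parameter logistic to give DC50; Dmax denotes maximal degradation.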

[3] = tested on: EGFR Del19/T790M/C797S (H1975-clone #28); experiment: EGFR degradation HTRF assay, H1975-clone #28 DTC cells; conditions: H1975 # 28 DTC cells; for DC50: EGFR degradation, IC50 (DC50) from curve fit, read-out: DC50(nM) H1975 # 28 DTC; for Dmax (%) H1975 # 28 DTC: maximum percentage of inhibition (degradation)
In short: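 Cells were dosed on day 2 with an 8-point, 5-fold dilution series starting at 10 uM final and incubated 16h at 37° C. After lysis for 1 hour, HTRF antibodies were added overnight at room temperature and the plate was read at 665/620 nm. Degradation was normalised to DMSO wells and fitted for DC50 and Dmax.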

[4] = BaF3-LTC, 16h treatment, maximum percentage of degradation, read-out: LTC Dmax (%)
[5] = BaF3-LTC, 16h treatment, read-out: LTC DC50
[6] = BaF3-LTC cells, EGFR degradation, IC50 (DC50) from curve fit, read-out: DC50(nM) BaF3-LTC
[7] = BaF3-LTC cells, maximum percentage of inhibition (degradation), read-out: Dmax (%) BaF3-LTC

| Compound | DC50 [1] | Dmax [2, 4] | DC50 [2, 5] | DC50 [3] | DC50 [2, 6] | Dmax [2, 7] | DTC Dmax (%) [1] | Dmax (%) H1975 # 28 DTC [3] |
| --- | --- | --- | --- | --- | --- | --- | --- | --- |
| CCc1cc(Nc2ncc(Br)c(Nc3ccc4ncc(F)cc4c3P(C)(C)=O)n2)c(OC)cc1N1CCC(N2CCN(CCc3cc(F)c(C4CCC(=O)NC4=O)c(F)c3)CC2)CC1 (centres unmarked) [Example 336, 3-(4-(2-(4-(1-(4-((5-bromo-4-((5-(dimethylphosphoryl)-3-fluoroquinolin-6-yl)amino)pyrimidin-2-yl)amino)-2-ethyl-5-methoxyphenyl)piperidin-4-yl)piperazin-1-yl)ethyl)-2,6-difluorophenyl)piperidine-2,6-dione] | 0.984 nM | 88.5% | 9.91 nM | – | – | – | 94.98% | – |
| CCc1cc(Nc2ncc(Br)c(Nc3ccc4nccnc4c3P(C)(C)=O)n2)c(OC)cc1N1CCC(N2CCN(C(=O)[C@H]3CCN(c4cccc(C5CCC(=O)NC5=O)c4)C3)CC2)CC1 (stereo partly drawn) [Example 225, 3-(3-((S)-3-(4-(1-(4-((5-bromo-4-((5-(dimethylphosphoryl)quinoxalin-6-yl)amino)pyrimidin-2-yl)amino)-2-ethyl-5-methoxyphenyl)piperidin-4-yl)piperazine-1-carbonyl)pyrrolidin-1-yl)phenyl)piperidine-2,6-dione] | 6.98 nM | 79.2% | 48.9 nM | – | – | – | 89.48% | – |
| COc1cc(N2CCC(N3CCN(CCc4cc(F)c(C5CCC(=O)NC5=O)c(F)c4)CC3)CC2)c(C(C)O)cc1Nc1ncc(Br)c(Nc2ccc3nccnc3c2P(C)(C)=O)n1 (centres unmarked) [Example 430, 3-(4-(2-(4-(1-(4-((5-bromo-4-((5-(dimethylphosphoryl)quinoxalin-6-yl)amino)pyrimidin-2-yl)amino)-2-(1-hydroxyethyl)-5-methoxyphenyl)piperidin-4-yl)piperazin-1-yl)ethyl)-2,6-difluorophenyl)piperidine-2,6-dione] | 2.64 nM | 94.5% | 4.5 nM | – | – | – | 97.63% | – |
| COc1cc(N2CCC(N3CCN(CCC4CCN(c5cc(F)c(C6CCC(=O)NC6=O)c(F)c5)CC4)CC3)CC2)c(C)cc1Nc1ncc(Br)c(Nc2ccc3nc(C)ccc3c2P(C)(C)=O)n1 (centres unmarked) [Example 217, 3-(4-(4-(2-(4-(1-(4-((5-bromo-4-((5-(dimethylphosphoryl)-2-methylquinolin-6-yl)amino)pyrimidin-2-yl)amino)-5-methoxy-2-methylphenyl)piperidin-4-yl)piperazin-1-yl)ethyl)piperidin-1-yl)-2,6-difluorophenyl)piperidine-2,6-dione] | 29.7 nM | 89.6% | 86.8 nM | – | – | – | 90.75% | – |
| CCc1cc(Nc2ncc(Br)c(Nc3ccc4nccnc4c3P(C)(C)=O)n2)c(OC)cc1N1CCC(N2CCN(C(=O)C3CCN(c4ccc5nn(C6CCC(=O)NC6=O)cc5c4)CC3)CC2)CC1 (centres unmarked) [Example 308, 3-(5-(4-(4-(1-(4-((5-bromo-4-((5-(dimethylphosphoryl)quinoxalin-6-yl)amino)pyrimidin-2-yl)amino)-2-ethyl-5-methoxyphenyl)piperidin-4-yl)piperazine-1-carbonyl)piperidin-1-yl)-2H-indazol-2-yl)piperidine-2,6-dione] | 5.01 nM | 91.8% | 15.6 nM | – | – | – | 93.79% | – |
| CCc1cc(Nc2ncc(Br)c(Nc3ccc4nccnc4c3P(C)(C)=O)n2)c(OC)cc1N1CCC(N2CCN(CC3CCN(c4cccc(C5CCC(=O)NC5=O)c4)CC3)CC2)CC1 (centres unmarked) [Example 264, 3-(3-(4-((4-(1-(4-((5-bromo-4-((5-(dimethylphosphoryl)quinoxalin-6-yl)amino)pyrimidin-2-yl)amino)-2-ethyl-5-methoxyphenyl)piperidin-4-yl)piperazin-1-yl)methyl)piperidin-1-yl)phenyl)piperidine-2,6-dione] | 17.1 nM | 86.2% | 61 nM | – | – | – | 74.58% | – |
| CCc1cc(Nc2ncc(Br)c(Nc3ccc4c(=O)n(C)ccc4c3P(C)(C)=O)n2)c(OC)cc1N1CCC(N2CCN(CCc3cc(F)c(C4CCC(=O)NC4=O)c(F)c3)CC2)CC1 (centres unmarked) [Example 429, 3-(4-(2-(4-(1-(4-((5-bromo-4-((5-(dimethylphosphoryl)-2-methyl-1-oxo-1,2-dihydroisoquinolin-6-yl)amino)pyrimidin-2-yl)amino)-2-ethyl-5-methoxyphenyl)piperidin-4-yl)piperazin-1-yl)ethyl)-2,6-difluorophenyl)piperidine-2,6-dione] | 2.33 nM | 91.3% | 5.15 nM | – | – | – | 94.9% | – |

More lines, main results first:

| DC50 [1] | Dmax [2, 4] | DC50 [2, 5] | DC50 [3] | DC50 [2, 6] | Dmax [2, 7] | Compound | DTC Dmax (%) [1] | Dmax (%) H1975 # 28 DTC [3] |
| --- | --- | --- | --- | --- | --- | --- | --- | --- |
| 7.43 nM | 90.4% | 50.8 nM | – | – | – | CCc1cc(Nc2ncc(Br)c(Nc3ccc4nc(C)ccc4c3P(C)(C)=O)n2)c(OC)cc1N1CCC(N2CCCN(CCc3cc(F)c(C4CCC(=O)NC4=O)c(F)c3)CC2)CC1 (centres unmarked) [Example 713, 3-(4-(2-(4-(1-(4-((5-bromo-4-((5-(dimethylphosphoryl)-2-methylquinolin-6-yl)amino)pyrimidin-2-yl)amino)-2-ethyl-5-methoxyphenyl)piperidin-4-yl)-1,4-diazepan-1-yl)ethyl)-2,6-difluorophenyl)piperidine-2,6-dione] | 86.33% | – |
| 7.48 nM | 89.9% | 23.9 nM | – | – | – | CCc1cc(Nc2ncc(Br)c(Nc3ccc4nc(C(F)(F)F)ccc4c3P(C)(C)=O)n2)c(OC)cc1N1CCC(N2CCN(CCc3cc(F)c(C4CCC(=O)NC4=O)c(F)c3)CC2)CC1 (centres unmarked) [Example 435, 3-(4-(2-(4-(1-(4-((5-bromo-4-((5-(dimethylphosphoryl)-2-(trifluoromethyl)quinolin-6-yl)amino)pyrimidin-2-yl)amino)-2-ethyl-5-methoxyphenyl)piperidin-4-yl)piperazin-1-yl)ethyl)-2,6-difluorophenyl)piperidine-2,6-dione] | 92.59% | – |
| – | – | – | 3.06 nM | 12.7 nM | 93.5% | CCc1cc(Nc2ncc(Br)c(Nc3ccc4nc(C)ccc4c3P(C)(C)=O)n2)c(OC)cc1N1CCC(N2CCN(CCC3CCN(c4cc(F)c(C5CCC(=O)NC5=O)c(F)c4)CC3)C(=O)C2)CC1 (centres unmarked) [Example 695, 3-(4-(4-(2-(4-(1-(4-((5-bromo-4-((5-(dimethylphosphoryl)-2-methylquinolin-6-yl)amino)pyrimidin-2-yl)amino)-2-ethyl-5-methoxyphenyl)piperidin-4-yl)-2-oxopiperazin-1-yl)ethyl)piperidin-1-yl)-2,6-difluorophenyl)piperidine-2,6-dione] | – | 68.81% |
| – | – | – | 0.894 nM | 14.6 nM | 81.4% | CCc1ccc2c(P(C)(C)=O)c(Nc3nc(Nc4cc(CC)c(N5CCC(N6CCN(CCc7cc(F)cc8c7oc(=O)n8C7CCC(=O)NC7=O)CC6)CC5)cc4OC)ncc3Br)ccc2n1 (centres unmarked) [Example 443, 3-(7-(2-(4-(1-(4-((5-bromo-4-((5-(dimethylphosphoryl)-2-ethylquinolin-6-yl)amino)pyrimidin-2-yl)amino)-2-ethyl-5-methoxyphenyl)piperidin-4-yl)piperazin-1-yl)ethyl)-5-fluoro-2-oxobenzo[d]oxazol-3(2H)-yl)piperidine-2,6-dione] | – | 82.38% |

Source: patent publication US20230265116A1, “DEGRADATION OF (EGFR) BY CONJUGATION OF EGFR INHIBITORS WITH E3 LIGASE LIGAND AND METHODS OF USE” (BEIGENE, LTD., priority 2020, published 2023)
